The values that follow come from US11759480B2, “Compositions and methods for CAR T cell therapy” (ENDOCYTE, INC., priority 2017, dated 2023).

The test system of data set [1] is MDA-MB-231 solid tumor xenografts. The class given is in vivo. How it is done: MDA-MB-231 cells were subcutaneously injected into the shoulders of NSG mice (Jackson Laboratory) to establish solid tumor xenografts. When tumor volume reached around 50-100 mm^3, anti-FITC CAR T cells (15×10^6 cells) were intravenously introduced into tumor-bearing mice. Twenty NSG mice were divided into four study groups (5 animals in each group). The first group was treated with anti-FITC CAR T cells with phosphate-buffered saline (PBS) as a negative control. The second, third, and fourth groups were treated with anti-FITC CAR T cells with FITC-Folate (500 nmole/kg) every other day. Once a significant toxicity (e.g. serious loss of body weight) was detected, these groups were treated with either: continued FITC-Folate administration (second group); discontinuation of FITC-Folate administration until the mice recovered (third group); or a mixture of 100-fold excess of EC0923 (i.e. free folate) and FITC-Folate until the mice recovered (fourth group). The body weight was measured regularly to monitor toxicity. In addition, the blood concentration of interferon (IFN)-gamma for each treatment group was measured to monitor the degree of anti-FITC CAR T activation. Finally, tumor volume was measured to identify anti-tumor efficacy in each treatment group.

The test system is the same in data set [2]. Description: Control of CAR T cell activation in vivo: break, FA competitor or both (Example 19). How it is done:
Five study groups were designed to test whether anti-FITC CAR T cell activation can be controlled via temporal termination of FITC-ligands, by administering a competitor small molecule, or a combination approach of both discontinuing of FITC-ligands and/or administering an FA competitor. The first group was treated by administering anti-FITC CAR T cell with phosphate-buffered saline (PBS) as a negative control. Every other day over the course of the study, the second, third, fourth and fifth groups were treated with anti-FITC CAR T cell mixed with FITC-Folate (500 nmole/kg). […] Mouse bodyweight was measured regularly to test for toxicity.

In data set [3] the test system is severe cytokine release syndrome in mice bearing tumors. The data set is described as follows: Rescue ability of EC0923 during CAR T cell treatment (Example 18). It counts as in vivo. The method, then:
CAR T cells were introduced into mice bearing tumors and EC17 was also introduced (i.v.) three times per week. When severe cytokine release syndrome was observed, one dose of EC0923 at 10 μmoles/kg was introduced to rescue mice. Mice were monitored for 4 more days, and some were euthanized to evaluate organs. Mice with one dose of EC0923 started to move and look for food after 4 hours, and their spleens and livers were red. Control mice without EC0923 didn't move after 6 hours, and their spleens and livers were pale. Mice with EC0923 treatment were active again in 24 hours and expected to survive, and were put back to a normal EC17 dosing schedule. Control mice without EC0923 started to move a little in 24 hours, but had to be euthanized to prevent animal suffering. Mice with EC0923 looked normal in 4 days. One of the mice was euthanized and found to have normal colored spleen and liver. […] Other remaining mice with EC0923 were given routine EC17 dosing three times per week, and their tumors disappeared in 4 weeks.

Data set [4] relates to MDA-MB-231 tumors. Description: Rescue ability of competitors during CAR T cell treatment (Example 23). It counts as in vivo, mice. The following applies: for time until mice looked normal / time until mice started to move and look for food / time until mice were active again: one i.v. dose 10 μmoles/kg at sCRS. How it is done: When severe cytokine release syndrome was observed, one dose of EC0923 (folate) or untethered fluorescein (both at 10 μmoles/kg) was introduced intravenously to rescue mice (FIG. 16). Mice with one dose of EC0923 or fluorescein started to move and look for food after 4 hours, were active again in 24 hours, and looked normal in 4 days. EC17 administration was then continued. Control mice without EC0923 or fluorescein didn't move after 4 hours, and had to be euthanized because of the sickness. […] All mice tested for cytokine production were injected with 8 million CAR-T cells.

For data set [5], the system named is MDA-MB-231 tumors. Description: CAR-T number in blood after rescue with EC0923 or fluoresceinamine (Example 31). The class given is in vivo, NSG mice. The following applies: for earliest time of increased CAR-T count in blood: 10 umol/kg i.v.; for CAR-T number in blood: 10 umol/kg i.v. at sCRS. The method, then:
EC17/CAR-T therapy strategy is controllable through bridge displacement by either free folate or free fluorescein. […] Mice from three groups were then euthanized at 8, 12, 24 and 48 hours post injection of EC0923 or fluoresceinamine, and their blood samples were analyzed for CAR-T cell number and cytokine levels. CAR-T cells in blood were stained with anti-human CD45 antibody labeled with APCeF780 (Biolegend) and counted by FACS. CountBright™ Absolute Counting Beads (ThermoFisher Scientific) were mixed into the samples and used as a reference for cell counting.

The test system of data set [6] is MDA-MB-231 tumors. Description: Comparison of three rescue reagents (Example 32). The following applies: for order of sCRS severity (from worst to least): 10 hours after rescue, Leucovorin 10, folic acid 10, sodium fluorescein 260 umol/kg; for tumor outcome of rescued mice: single rescue dose, EC17 continued.
Method: To evaluate whether mice with FITC-CAR-T therapy related sCRS can be rescued by using competitors which may displace EC17 from either FITC-CAR-T or FR+ tumor cells, 49 NSG mice bearing MDA-MB-231 tumors (150-250 mm3) were administered with excess FITC-CAR-T cells (8 million), 36 of them were then dosed with 500 nmol/kg EC17 48 hours post CAR-T administration, 6 of them were not dosed with EC17 and were used as “No EC17” control, and 7 of them were dosed with 260 umol/kg sodium fluorescein (no EC17 but Fluorescein) to test its toxicity. […] Each group was i.v. injected with 10 umol/kg of Leucovorin, or 10 umol/kg folic acid, or 260 umol/kg sodium fluorescein, or nothing as an un-rescued control. […] Mouse body weight changes were also monitored as the indication of toxicity. […] To evaluate whether the rescue injections affect the anti-tumor activity of FITC-CAR-T cells, these mice were dosed with 500 nmol/kg EC17 twice per week (days 9, 11, 15, 18, 22, 25, etc.) and the tumor size was monitored.
The test system of the next data set is MDA-MB-231 cells. Description: Control of CRS with bridge molecules in vivo (Example 43). Details: species or system NSG mice. How it is done:
Mice were maintained on folic acid-deficient diet (TD.95247, Envigo) in order to reduce the level of folic acid in mice to a physiological levels found in humans. Tumors were measured every other day with calipers, and tumor volume was calculated according to equation: Tumor volume=½(L×W^2) where L is the longest axis of the tumor and W is the axis perpendicular to L. Mouse blood was also collected to measure cytokine levels (e.g. IL-2, IL-6, IFNγ, and TNFα) using LEGENDplex bead-based immunoassay (Biolegend, CA) and systemic toxicity was monitored by measuring body weight loss. All animal care and use followed by National Institutes of Health (NIH) guidelines and all experimental protocols were approved by the Purdue Animal Care and Use Committee.

A further data set concerns MDA-MB-231. The data set is described as follows: Effect of Folate-FITC on CAR-T cell number and serum cytokines (Example 21). It counts as in vivo, NSG mice. The following applies: 500 nmole/kg, 10^7 CAR T cells, Day 6. How it is done: The triple negative human breast cancer cell line (i.e. MDA-MB-231) was subcutaneously implanted into the shoulders of immunodeficient (e.g. NSG) mice. When tumor volume reached around 50-100 mm^3, anti-FITC CAR T cells (10^7 cells) were intravenously introduced with either FITC-folate (500 nmole/kg) or PBS. To monitor CAR T cell proliferation and pro-inflammatory cytokine production, mice blood was collected at Day 6. CAR T cell proliferation was evaluated by staining a whole blood sample with anti-human CD3 antibody (Biolegned) and detecting GFP expression on the CD3 positive T cell population. Pro-inflammatory cytokine production was measured by a bead-based immunoassay (Legendplex kit from biolegend).

Setting [7] is: within 3 hours, 6 μmole/kg free fluorescein.
Where [8] appears, read: 100-fold excess on days 4 and 6.

With `Nc1nc(=O)c2nc(CNc3ccc(C(=O)N[C@@H](CCC(=O)O)C(=O)O)cc3)cnc2[nH]1` [EC0923], the IFN-gamma blood concentration result in data set [1] (competitor group) is reported as “decreased”. The “survival of mice at the first week of treatment” value in data set [1] (competitor group: 100-fold excess of free folate mixed with FITC-Folate at day 4 and day 6) was “all of the mice in both the break and competitor groups survived”. The “control of CAR T cell mediated toxicity” value in data set [2] (100-fold excess with FITC-Folate (FITC-Folate+FA Competitor)) is recorded as “able to control the degree of CAR T cell activation to alleviate CAR T cell mediated toxicity”; in data set [2] (termination of FITC-Folate plus excess free folic acid (Break+FA Competitor)) it was “better efficacy in decreasing CAR T cell mediated toxicity compared to each approach alone”.

For the compound `Nc1nc2ncc(CNc3ccc(C(=O)N[C@@H](CCCN[C@H](CC(=O)O)C(=O)N[C@H](CC(=O)O)C(=O)O)C(=O)O)cc3)nc2c(=O)[nH]1` [EC0923], in data set [1] (competitor group (100-fold excess EC0923 + FITC-Folate)), the complete response came out at 75%. In addition, in data set [3] (one dose 10 μmoles/kg at sCRS), the “time until mice looked normal” value came out at 4 days; the “time until mice started to move and look for food” value (“time until mice started” for short) was 4 h; the “time until mice were active again” value is 24 h. Moreover, in data set [3] (rescued mice, routine EC17 dosing three times per week resumed), the “time until tumors disappeared” value came out at 4 weeks. For the same compound, in the data set on MDA-MB-231 tumors [4], the “time until mice looked normal” value was found to be 4 days; the “time until mice started” value turned out to be 4 h; the “time until mice were active again” value was 24 h. The “tumor outcome four weeks later” value in the data set on MDA-MB-231 tumors [4] (rescue treatment, EC17 continued) was “tumors were eliminated”. In the data set with MDA-MB-231 tumors [5], the “earliest time of increased CAR-T count in blood” value came out at 6 h and the “CAR-T number in blood” value is reported as “increase of CAR-T number in blood circulation”.

Turning to `Nc1nc2c(c(=O)[nH]1)N(C=O)C(CNc1ccc(C(=O)N[C@@H](CCC(=O)O)C(=O)O)cc1)CN2` (stereo partly shown) [Leucovorin], in the data set with MDA-MB-231 tumors [6], the “order of sCRS severity (from worst to least)” value was “no rescue group>leucovorin rescue group>folic acid rescue group>sodium fluorescein rescue group>no EC17 group” and the “tumor outcome of rescued mice” value is “complete response”.

Regarding `O=C1OC2(c3ccc(O)cc3Oc3cc(O)ccc32)c2ccccc21` [fluorescein, reference compound], in the data set with MDA-MB-231 tumors [4], the “time until mice looked normal” value was determined as 4 days; the “time until mice started” value amounted to 4 h; the “time until mice were active again” value amounted to 24 h. The “time to decrement of plasma IFNγ” value in the data set on MDA-MB-231 cells (post fluorescein injection) was determined as 6 h. For the same compound, in the data set with MDA-MB-231 cells (setting [7]), the “decrease of plasma IL-2” value is given as more than 50%, the “decrease of plasma IL-6” value is listed as more than 50% and the “decrease of plasma TNF-α” value is reported as more than 50%.

Regarding `Nc1ccc2c(c1)C(=O)OC21c2ccc(O)cc2Oc2cc(O)ccc21` [fluoresceinamine], in the data set on MDA-MB-231 tumors [5] (10 umol/kg), the “CAR-T displacement compared with EC0923” value was “more CAR-T displacement than folate”. Besides, in the data set with MDA-MB-231 tumors [5], the “earliest time of increased CAR-T count in blood” value was determined as 6 h and the “CAR-T number in blood” value was “increase of CAR-T number in blood circulation”.

Take `Nc1nc2ncc(CNc3ccc(C(=O)N[C@@H](CCC(=O)O)C(=O)O)cc3)nc2c(=O)[nH]1` [folic acid, reference compound]: in the data set on MDA-MB-231 cells (setting [8]), the IFNγ level result is “reduced the level of IFNγ”, the body weight entry was “rapidly prevented the continuous weight loss” and the “therapeutic potency of CAR T cell therapy” value is given as “enhanced the therapeutic potency”. In addition, in the data set on MDA-MB-231 tumors [6], the “order of sCRS severity (from worst to least)” value is recorded as “no rescue group>leucovorin rescue group>folic acid rescue group>sodium fluorescein rescue group>no EC17 group” and the “tumor outcome of rescued mice” value is recorded as “complete response”.

Take FITC-Folate [EC17]: in the data set with MDA-MB-231, the “anti-FITC CAR T cell proliferation in blood” value is given as “proliferated significantly” and the “pro-inflammatory cytokines (IL-2, TNF-α, IFN-γ)” value is given as “significantly produced”.
